Experimental findings from patent US20220356174A1, “PYRIDIN-2-ONE COMPOUNDS USEFUL AS SMARCA2 ANTAGONISTS” (Epizyme, Inc., priority 2018, published 2022) are described below.

Sequence of FL-SMARCA4 (P51532 whole entry): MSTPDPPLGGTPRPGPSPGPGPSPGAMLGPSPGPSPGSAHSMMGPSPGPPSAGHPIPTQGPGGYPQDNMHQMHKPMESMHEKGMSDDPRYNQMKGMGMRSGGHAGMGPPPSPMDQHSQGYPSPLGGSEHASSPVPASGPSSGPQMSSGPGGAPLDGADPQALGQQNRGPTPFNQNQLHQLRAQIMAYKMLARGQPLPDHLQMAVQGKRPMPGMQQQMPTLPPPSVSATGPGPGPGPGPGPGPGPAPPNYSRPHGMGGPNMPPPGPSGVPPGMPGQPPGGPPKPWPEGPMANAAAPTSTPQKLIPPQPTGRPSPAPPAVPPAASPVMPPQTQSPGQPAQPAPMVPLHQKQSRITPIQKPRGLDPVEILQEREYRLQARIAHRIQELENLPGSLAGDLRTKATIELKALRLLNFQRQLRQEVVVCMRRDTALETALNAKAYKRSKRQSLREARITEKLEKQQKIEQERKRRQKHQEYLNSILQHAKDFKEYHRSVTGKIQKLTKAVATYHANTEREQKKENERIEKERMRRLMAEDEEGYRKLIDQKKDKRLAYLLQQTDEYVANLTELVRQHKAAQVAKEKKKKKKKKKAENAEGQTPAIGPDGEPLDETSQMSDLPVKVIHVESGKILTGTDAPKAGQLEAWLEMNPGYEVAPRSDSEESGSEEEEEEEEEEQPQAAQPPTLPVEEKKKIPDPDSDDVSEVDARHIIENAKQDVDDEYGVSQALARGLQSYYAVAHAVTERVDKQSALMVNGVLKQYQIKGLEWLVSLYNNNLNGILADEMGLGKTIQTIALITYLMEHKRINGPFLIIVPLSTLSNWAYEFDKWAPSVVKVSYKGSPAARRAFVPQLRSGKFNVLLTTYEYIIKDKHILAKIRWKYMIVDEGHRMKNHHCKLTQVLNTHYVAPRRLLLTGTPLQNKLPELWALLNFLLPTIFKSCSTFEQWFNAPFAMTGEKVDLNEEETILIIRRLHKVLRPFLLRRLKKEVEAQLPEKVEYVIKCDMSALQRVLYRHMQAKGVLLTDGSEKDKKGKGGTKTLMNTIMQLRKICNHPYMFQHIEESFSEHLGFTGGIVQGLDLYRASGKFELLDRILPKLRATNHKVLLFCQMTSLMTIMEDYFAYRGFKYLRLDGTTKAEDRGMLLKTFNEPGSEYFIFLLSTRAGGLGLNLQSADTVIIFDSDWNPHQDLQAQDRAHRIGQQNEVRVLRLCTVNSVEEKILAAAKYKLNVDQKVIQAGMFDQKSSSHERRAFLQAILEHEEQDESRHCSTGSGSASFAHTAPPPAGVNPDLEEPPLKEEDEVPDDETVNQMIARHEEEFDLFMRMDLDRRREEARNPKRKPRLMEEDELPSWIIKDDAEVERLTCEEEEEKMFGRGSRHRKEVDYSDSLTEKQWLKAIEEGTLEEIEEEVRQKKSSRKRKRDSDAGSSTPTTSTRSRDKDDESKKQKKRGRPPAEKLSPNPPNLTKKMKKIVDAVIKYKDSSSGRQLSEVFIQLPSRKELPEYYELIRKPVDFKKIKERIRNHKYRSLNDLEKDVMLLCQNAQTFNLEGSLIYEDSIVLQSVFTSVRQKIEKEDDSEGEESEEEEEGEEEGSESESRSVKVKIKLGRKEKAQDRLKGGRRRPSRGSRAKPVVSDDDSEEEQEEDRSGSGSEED
T1 sequence (P51531 with tags, fused parts or gaps): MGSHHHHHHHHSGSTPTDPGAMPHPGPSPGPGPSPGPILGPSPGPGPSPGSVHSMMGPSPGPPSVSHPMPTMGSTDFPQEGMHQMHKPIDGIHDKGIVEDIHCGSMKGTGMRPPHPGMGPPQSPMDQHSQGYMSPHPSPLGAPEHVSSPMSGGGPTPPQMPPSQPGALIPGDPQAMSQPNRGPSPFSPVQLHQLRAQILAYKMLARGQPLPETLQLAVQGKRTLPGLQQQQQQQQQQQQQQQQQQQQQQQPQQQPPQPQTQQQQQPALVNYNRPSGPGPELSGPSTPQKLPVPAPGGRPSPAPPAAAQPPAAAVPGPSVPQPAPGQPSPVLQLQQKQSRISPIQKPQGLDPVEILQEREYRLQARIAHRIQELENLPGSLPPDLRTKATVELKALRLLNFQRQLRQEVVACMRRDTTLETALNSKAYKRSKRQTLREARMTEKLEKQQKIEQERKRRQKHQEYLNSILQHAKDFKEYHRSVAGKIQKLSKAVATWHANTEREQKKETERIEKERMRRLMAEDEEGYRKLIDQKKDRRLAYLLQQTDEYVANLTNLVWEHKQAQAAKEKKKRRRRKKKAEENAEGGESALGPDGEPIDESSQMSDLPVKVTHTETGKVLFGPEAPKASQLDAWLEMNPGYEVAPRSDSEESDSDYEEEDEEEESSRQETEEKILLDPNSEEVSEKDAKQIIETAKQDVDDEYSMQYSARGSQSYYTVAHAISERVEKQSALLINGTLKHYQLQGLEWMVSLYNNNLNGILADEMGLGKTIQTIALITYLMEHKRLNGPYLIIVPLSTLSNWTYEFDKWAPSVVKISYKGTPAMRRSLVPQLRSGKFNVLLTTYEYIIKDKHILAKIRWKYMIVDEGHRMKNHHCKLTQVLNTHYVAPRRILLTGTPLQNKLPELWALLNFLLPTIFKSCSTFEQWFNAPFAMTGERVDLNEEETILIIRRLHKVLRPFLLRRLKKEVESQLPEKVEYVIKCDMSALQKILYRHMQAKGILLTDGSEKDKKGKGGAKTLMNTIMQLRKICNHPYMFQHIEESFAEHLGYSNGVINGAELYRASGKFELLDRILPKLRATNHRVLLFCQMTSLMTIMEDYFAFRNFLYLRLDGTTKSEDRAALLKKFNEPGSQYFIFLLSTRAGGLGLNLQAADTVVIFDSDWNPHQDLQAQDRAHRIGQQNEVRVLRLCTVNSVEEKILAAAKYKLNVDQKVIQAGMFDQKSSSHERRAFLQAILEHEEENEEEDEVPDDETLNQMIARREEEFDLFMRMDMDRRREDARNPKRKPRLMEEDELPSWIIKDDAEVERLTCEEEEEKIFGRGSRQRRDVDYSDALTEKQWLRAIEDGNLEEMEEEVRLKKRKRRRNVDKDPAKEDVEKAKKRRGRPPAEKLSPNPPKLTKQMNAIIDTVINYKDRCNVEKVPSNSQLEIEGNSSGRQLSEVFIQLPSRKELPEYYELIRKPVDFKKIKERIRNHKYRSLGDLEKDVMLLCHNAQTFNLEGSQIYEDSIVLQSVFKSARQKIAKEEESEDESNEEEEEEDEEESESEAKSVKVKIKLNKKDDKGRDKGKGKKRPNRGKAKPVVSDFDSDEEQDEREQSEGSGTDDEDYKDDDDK

The first experiment has as its target T1, FL-SMARCA2 (full-length human SMARCA2 isoform 1) (Homo sapiens, UniProt P51531).
T1 construct: FLAG tag (YKDDDDK) (C); made in house; host or cells: Sf21 insect cells (baculovirus, pFastBacI)
Nature of the experiment: SMARCA2 ATPase activity assay (ADP-Glo, chicken mononucleosome substrate). The experiment is classed as biochemical. Conditions: Table 3a.1; SMARCA2 5 nM, ATP 250 uM, mononucleosome 10 nM. (In general: ADP-Glo first removes unused ATP, then detects ADP through luciferase.)
As for `O=C(Nc1ccc(=O)n(CC(F)(F)F)c1)c1nc2cc(Cl)c(Cl)cc2[nH]1` [Compound 43a], the IC50 is greater than 50 µM.
Still for that read-out and setting: with `O=C(Nc1cc(F)c(=O)n(CCF)c1)c1ncccn1` [Compound 55a] the figure was greater than 50 µM; with `CCn1cc(NC(=O)C2CCOCC2)ccc1=O` [Compound 13a], greater than 50 µM.
`O=C(Nc1ccc(=O)n(Cc2ccccc2Cl)c1)C1COCCN1` (centres unmarked) [Compound 6a] came in with an IC50 greater than 50 µM.
`O=C(Nc1cc(F)c(=O)n(CCF)c1)N1CCCC1` [Compound 52a] returned an IC50 greater than 50 µM.
For `CO[C@@H]1CN[C@H](C(=O)Nc2cc(Br)c(=O)n(C)c2)C1` [Compound 9a], the IC50 is greater than 50 µM.
On the same count and under the same terms, with `COc1ccc2[nH]c(C(=O)Nc3c[nH]c(=O)c(C)c3)cc2c1` [Compound 8a] the figure was greater than 50 µM; with `O=C(Nc1cc(F)c(=O)n(CCF)c1)c1cc2n(n1)CCNC2=O` [Compound 64a], greater than 50 µM.
In turn, `CCn1cc(NC(=O)c2cn(C)c3c(Cl)cccc23)ccc1=O` [Compound 27a] had an IC50 greater than 50 µM.

The experiment is the same for the next values; noted with them: Table 3c.1; ATPase assay, enzyme 5 nM, ATP 250 uM, chicken mononucleosome 10 nM, 30 min preincubation.
In the case of `O=C1CC(C#Cc2cc(C(=O)Nc3cc(F)c(=O)n(CC(F)F)c3)sc2Cl)CCN1` (centres unmarked) [Compound 105c], it took 0.0407 µM to reach half-maximal inhibition (IC50).
Still for that read-out and setting: with `O=C(Nc1cc(F)c(=O)n(CC(F)(F)CO)c1)c1cc(Cl)c(Cl)s1` [Compound 100c] the figure was 6.81 µM.
Turning to `Cn1ccc(-c2cc(NC(=O)c3cc(Cl)c(C(F)(F)F)s3)cn(CC(F)F)c2=O)n1` [Compound 103c], the IC50 is 31.3 µM.
With `N#Cc1sc(C(=O)Nc2cc(F)c(=O)n(CC(F)F)c2)cc1C#CC1COC1` [Compound 93c], the IC50 is greater than 50 µM.
For the compound `C[S+]([O-])c1cc(C(=O)Nc2cc(F)c(=O)n(CC(F)F)c2)sc1Cl` (centres unmarked) [Compound 2c], 24.6 µM corresponded to half-maximal inhibition (IC50).
Still for that read-out and setting: with `O=C(Nc1cc(F)c(=O)n(CC(F)F)c1)c1cc(C#Cc2ccncc2)cs1` [Compound 23c] the figure was 0.173 µM; with `O=C(Nc1cc(F)c(=O)n(CC(F)F)c1)c1cc(C#CC2CNC2)c(Cl)s1` [Compound 9c], 2.88 µM.
For `CNCCCn1cc(NC(=O)c2cc(F)c(Cl)s2)cc(F)c1=O` [Compound 53c], the IC50 is greater than 50 µM.
Consider `Cn1ccnc1-c1cc(NC(=O)c2sc(C(F)(F)F)cc2Cl)cn(CC(F)F)c1=O` [Compound 51c], for which the IC50 is greater than 50 µM.
As for `COCc1cc(NC(=O)c2cc(F)c(Cl)s2)cn(CC(F)F)c1=O` [Compound 3c], the IC50 worked out at 40 µM.
In turn, `O=C(Nc1cc(-c2cnco2)c(=O)n(CC(F)F)c1)c1cc(Cl)c(C(F)(F)F)s1` [Compound 101c] registered an IC50 greater than 50 µM.

The experiment is the same for the next values; noted with them: Table 3.1; ATPase assay, enzyme 5 nM, ATP 250 uM, chicken mononucleosome 10 nM, 30 min preincubation.
`CCn1cc(NC(=O)c2cc(Cl)c(C#N)n2C)cc(F)c1=O` [Compound 174] came in with an IC50 of 0.388 µM.
Regarding `CCn1cc(NC(=O)c2cc(Cl)c(C)s2)ccc1=O` [Compound 73], 11.5 µM corresponded to half-maximal inhibition (IC50).
The compound `CCc1cc(C(=O)Nc2ccc(=O)n(CC)c2)sc1Cl` [Compound 91] came in with an IC50 greater than 50 µM.
Same read-out and setting: with `CCn1cc(NC(=O)c2nc(Cl)c(Cl)s2)ccc1=O` [Compound 64] the figure was greater than 50 µM.
`CCn1cc(NC(=O)c2cc(C#N)c(Cl)s2)cc(F)c1=O` [Compound 180]: the midpoint of inhibition, the IC50, lay at 0.0846 µM.
On the same count and under the same terms, with `O=C(Nc1cc(F)c(=O)n(CCF)c1)c1cc(CO)c(Cl)s1` [Compound 308] the figure was 23.3 µM.
The compound `CCn1cc(NC(=O)c2cc(Cl)c(Cl)s2)cc(F)c1=O` [Compound 109] showed an IC50 of 0.173 µM. Compared with the last compound, the IC50 is about 130-fold lower.
In the case of `O=C(Nc1cc(NCCc2cccnc2)c(=O)n(CCF)c1)c1cc(Cl)c(Cl)s1` [Compound 257], the IC50 was found to be 19.1 µM. Compared with the last compound, the IC50 is about 110-fold higher.

A further experiment concerns the target FL-SMARCA4 (Homo sapiens, UniProt P51532). As to the kind of experiment: SMARCA4 ATPase activity assay (ADP-Glo, chicken mononucleosome substrate). The conditions noted are these: FL-SMARCA4 IC50, Table 3a.2; SMARCA4 5 nM, ATP 250 uM, mononucleosome 10 nM.
On to `O=C(Nc1ccc(=O)n(CC(F)(F)F)c1)c1nc2cc(Cl)c(Cl)cc2[nH]1` [Compound 43a], for which the IC50 is greater than 50 µM.
`O=C(Nc1cc(F)c(=O)n(CCF)c1)c1ncccn1` [Compound 55a] yielded an IC50 greater than 50 µM.
Consider `CCn1cc(NC(=O)C2CCOCC2)ccc1=O` [Compound 13a], for which the IC50 is greater than 50 µM.
In the case of `O=C(Nc1ccc(=O)n(Cc2ccccc2Cl)c1)C1COCCN1` (centres unmarked) [Compound 6a], the IC50 is greater than 50 µM.
Same read-out and setting: with `O=C(Nc1cc(F)c(=O)n(CCF)c1)N1CCCC1` [Compound 52a] the figure was greater than 50 µM.
With `CO[C@@H]1CN[C@H](C(=O)Nc2cc(Br)c(=O)n(C)c2)C1` [Compound 9a], the IC50 was greater than 50 µM.
In turn, `COc1ccc2[nH]c(C(=O)Nc3c[nH]c(=O)c(C)c3)cc2c1` [Compound 8a] gave an IC50 greater than 50 µM.
Still for that read-out and setting: with `O=C(Nc1cc(F)c(=O)n(CCF)c1)c1cc2n(n1)CCNC2=O` [Compound 64a] the figure was greater than 50 µM; with `CCn1cc(NC(=O)c2cn(C)c3c(Cl)cccc23)ccc1=O` [Compound 27a], greater than 50 µM.

Staying with this experiment, now noted: FL-SMARCA4 IC50, Table 3.2; ATPase assay, enzyme 5 nM, ATP 250 uM, chicken mononucleosome 10 nM, 30 min preincubation.
For `CCn1cc(NC(=O)c2cc(Cl)c(C#N)n2C)cc(F)c1=O` [Compound 174], the IC50 is 1.47 µM.
In turn, `CCn1cc(NC(=O)c2cc(Cl)c(C)s2)ccc1=O` [Compound 73] came in with an IC50 of 35.6 µM.
Turning to `CCc1cc(C(=O)Nc2ccc(=O)n(CC)c2)sc1Cl` [Compound 91], the IC50 is greater than 50 µM.
In turn, `CCn1cc(NC(=O)c2nc(Cl)c(Cl)s2)ccc1=O` [Compound 64] showed an IC50 greater than 50 µM.
Consider `CCn1cc(NC(=O)c2cc(C#N)c(Cl)s2)cc(F)c1=O` [Compound 180], for which 0.383 µM corresponded to half-maximal inhibition (IC50).
Compound `O=C(Nc1cc(F)c(=O)n(CCF)c1)c1cc(CO)c(Cl)s1` [Compound 308] registered an IC50 greater than 50 µM.
In turn, `CCn1cc(NC(=O)c2cc(Cl)c(Cl)s2)cc(F)c1=O` [Compound 109] returned an IC50 of 0.559 µM.
Turning to `O=C(Nc1cc(NCCc2cccnc2)c(=O)n(CCF)c1)c1cc(Cl)c(Cl)s1` [Compound 257], 23.7 µM corresponded to half-maximal inhibition (IC50).

The experiment is the same for the next values; noted with them: FL-SMARCA4 IC>50, Table 3c.2; ATPase assay, enzyme 5 nM, ATP 250 uM, chicken mononucleosome 10 nM, 30 min preincubation.
`O=C1CC(C#Cc2cc(C(=O)Nc3cc(F)c(=O)n(CC(F)F)c3)sc2Cl)CCN1` (centres unmarked) [Compound 105c] returned an IC50 of 0.172 µM.
The compound `O=C(Nc1cc(F)c(=O)n(CC(F)(F)CO)c1)c1cc(Cl)c(Cl)s1` [Compound 100c] came in with an IC50 of 27.6 µM.
The compound `Cn1ccc(-c2cc(NC(=O)c3cc(Cl)c(C(F)(F)F)s3)cn(CC(F)F)c2=O)n1` [Compound 103c] returned an IC50 of 26 µM. This IC50 and that of the compound before are within 1.5-fold of each other.
As for `N#Cc1sc(C(=O)Nc2cc(F)c(=O)n(CC(F)F)c2)cc1C#CC1COC1` [Compound 93c], the 50% inhibitory concentration (IC50) was greater than 50 µM.
The same measure, in the same setting: with `C[S+]([O-])c1cc(C(=O)Nc2cc(F)c(=O)n(CC(F)F)c2)sc1Cl` (centres unmarked) [Compound 2c] the figure was greater than 50 µM; with `O=C(Nc1cc(F)c(=O)n(CC(F)F)c1)c1cc(C#Cc2ccncc2)cs1` [Compound 23c], 0.219 µM.
As for `O=C(Nc1cc(F)c(=O)n(CC(F)F)c1)c1cc(C#CC2CNC2)c(Cl)s1` [Compound 9c], the IC50 was found to be 7.82 µM.
For the compound `CNCCCn1cc(NC(=O)c2cc(F)c(Cl)s2)cc(F)c1=O` [Compound 53c], the IC50 was greater than 50 µM.
Compound `Cn1ccnc1-c1cc(NC(=O)c2sc(C(F)(F)F)cc2Cl)cn(CC(F)F)c1=O` [Compound 51c] returned an IC50 greater than 50 µM.
On the same count and under the same terms, with `COCc1cc(NC(=O)c2cc(F)c(Cl)s2)cn(CC(F)F)c1=O` [Compound 3c] the figure was greater than 50 µM; with `O=C(Nc1cc(-c2cnco2)c(=O)n(CC(F)F)c1)c1cc(Cl)c(C(F)(F)F)s1` [Compound 101c], greater than 50 µM.

In general, IC50 refers to the concentration at which inhibition is half-maximal.
